Results: PubChem BioAssay AID330 (DTP/NCI, 2004)
“And” between values parts separate entries of the source, which are not always exact repeats. Identical values can stand only once. Toxic doses and inconclusive results are not listed. How the source made its calls: active means survival T/C of 150% or more; inactive means T/C below 125% in these data.

System: P388 leukemia ip, CD2F1 mice, survival T/C
Experiment: NCI In Vivo Anticancer Drug Screen. Data for tumor model P388 Leukemia (intraperitoneal) in CD2F1 (CDF1) mice
Settings: endpoint: median survival time, higher = longer survival
How it was run: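 Mice carrying the transplanted tumor received test compound or vehicle. Survival was recorded in each group, and the value is the treated-group measurement divided by that of the vehicle-treated control group.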

[1] = dose: 50.0 mg/kg/injection, schedule: Q01DX005 (ip), vehicle: saline with Tween-80
[2] = dose: 100.0 mg/kg/injection, schedule: Q01DX005 (ip), vehicle: saline with Tween-80
[3] = dose: 200.0 mg/kg/injection, schedule: Q01DX005 (ip), vehicle: saline with Tween-80
[4] = dose: 100.0 mg/kg/injection, schedule: Q04DX003 (ip), vehicle: saline
[5] = dose: 200.0 mg/kg/injection, schedule: Q04DX003 (ip), vehicle: saline
[6] = dose: 400.0 mg/kg/injection, schedule: Q04DX003 (ip), vehicle: saline
[7] = dose: 50.0 mg/kg/injection, schedule: Q01DX009 (ip), vehicle: other
[8] = dose: 100.0 mg/kg/injection, schedule: Q01DX009 (ip), vehicle: other
[9] = dose: 200.0 mg/kg/injection, schedule: Q01DX009 (ip), vehicle: other
[10] = dose: 50.0 mg/kg/injection, schedule: Q01DX009 (ip), vehicle: saline
[11] = dose: 100.0 mg/kg/injection, schedule: Q01DX009 (ip), vehicle: saline
[12] = dose: 200.0 mg/kg/injection, schedule: Q01DX009 (ip), vehicle: saline
[13] = dose: 50.0 mg/kg/injection, schedule: Q01DX009 (ip), vehicle: Klucel (hydroxypropylcellulose) (HPC)
[14] = dose: 100.0 mg/kg/injection, schedule: Q01DX009 (ip), vehicle: Klucel (hydroxypropylcellulose) (HPC)
[15] = dose: 200.0 mg/kg/injection, schedule: Q01DX009 (ip), vehicle: Klucel (hydroxypropylcellulose) (HPC)
[16] = dose: 100.0 mg/kg/injection, schedule: Q01DX009 (ip), vehicle: saline with Tween-80
[17] = dose: 200.0 mg/kg/injection, schedule: Q01DX009 (ip), vehicle: saline with Tween-80
[18] = dose: 60.0 mg/kg/injection, schedule: Q01DX005 (ip), vehicle: saline with Tween-80
[19] = dose: 120.0 mg/kg/injection, schedule: Q01DX005 (ip), vehicle: saline with Tween-80
[20] = dose: 240.0 mg/kg/injection, schedule: Q01DX005 (ip), vehicle: saline with Tween-80

Measured: T/C

CC(C)C(NC=O)C(=O)O (stereo not drawn)
inactive: dose: 50.0 mg/kg/injection, schedule: Q01DX005 (ip), vehicle: Klucel (hydroxypropylcellulose) (HPC) 101 % of control | [1] 91 % of control | dose: 100.0 mg/kg/injection, schedule: Q01DX005 (ip), vehicle: Klucel (hydroxypropylcellulose) (HPC) 101 % of control | [2] 98 % of control | dose: 200.0 mg/kg/injection, schedule: Q01DX005 (ip), vehicle: Klucel (hydroxypropylcellulose) (HPC) 95 % of control | [3] 94 % of control

COC(=O)C(C(=O)OC)=C1C(=O)OCC1(C)C
inactive: [4] 101 % of control | [5] 100 % of control | [6] 100 % of control

CC1(C)CC(C)(OC(=O)c2ccc(Cl)cc2)[N+]([O-])=N1 (stereo not drawn)
inactive: dose: 12.5 mg/kg/injection, schedule: Q01DX009 (ip), vehicle: other 98 % of control | dose: 25.0 mg/kg/injection, schedule: Q01DX009 (ip), vehicle: other 98 % of control | [7] 106 % of control | [8] 89 % of control | [9] 89 % of control

O=C(O)C1CSC(c2ccc(O)cc2)N1 (stereo not drawn)
inactive: [10] 87 % of control | [11] 88 % of control | [12] 90 % of control

CCOC(=O)C(CSC(c1ccccc1)(c1ccccc1)c1ccccc1)NC(=O)CCNC(=O)c1ccccc1 (stereo not drawn)
inactive: dose: 4.0 mg/kg/injection, schedule: Q01DX009 (ip), vehicle: other 96 % of control | dose: 8.0 mg/kg/injection, schedule: Q01DX009 (ip), vehicle: other 112 % of control | dose: 16.0 mg/kg/injection, schedule: Q01DX009 (ip), vehicle: other 101 % of control | dose: 32.0 mg/kg/injection, schedule: Q01DX009 (ip), vehicle: other 96 % of control | [7] 104 % of control | dose: 64.0 mg/kg/injection, schedule: Q01DX009 (ip), vehicle: other 98 % of control | [8] 95 % of control | [9] 90 % of control | dose: 400.0 mg/kg/injection, schedule: Q01DX009 (ip), vehicle: other 95 % of control

CCSC(=S)NC#N
inactive: [13] 109 % of control | [14] 93 % of control | [15] 88 % of control

O=[N+]([O-])c1ccc(C2CC(c3ccccc3)=Nc3ccccc3S2)cc1 (stereo not drawn)
inactive: dose: 12.5 mg/kg/injection, schedule: Q01DX009 (ip), vehicle: saline 97 % of control | dose: 25.0 mg/kg/injection, schedule: Q01DX009 (ip), vehicle: saline 92 % of control | [10] 97 % of control

O=C1C2=C(SCCS2)C(=O)N1c1cccc2ccccc12
inactive: [10] 97 % of control | [11] 97 % of control | [12] 100 % of control

Cn1c(=O)c2c(nc(Br)n2CC(=O)c2ccc([N+](=O)[O-])cc2)n(C)c1=O
inactive: [4] 95 % of control | [5] 96 % of control | [6] 99 % of control

CC(C)(CCC(=S)N1CCOCC1)c1ccccc1
inactive: dose: 25.0 mg/kg/injection, schedule: Q01DX009 (ip), vehicle: saline with Tween-80 111 % of control | dose: 50.0 mg/kg/injection, schedule: Q01DX009 (ip), vehicle: saline with Tween-80 96 % of control | [16] 105 % of control | [17] 105 % of control

CCOC(=O)CCC1(C(=O)OC)C(=O)CCCCC/C=C/1C(=O)OC (stereo not drawn)
inactive: [16] 113 % of control | [17] 104 % of control | dose: 400.0 mg/kg/injection, schedule: Q01DX009 (ip), vehicle: saline with Tween-80 104 % of control

C[C@@H]1CN(c2ccccc2)C[C@@H](C)OS(=O)O1
inactive: dose: 100.0 mg/kg/injection, schedule: Q04DX002 (ip), vehicle: Klucel (hydroxypropylcellulose) (HPC) 104 % of control | dose: 200.0 mg/kg/injection, schedule: Q04DX002 (ip), vehicle: Klucel (hydroxypropylcellulose) (HPC) 97 % of control | dose: 400.0 mg/kg/injection, schedule: Q04DX002 (ip), vehicle: Klucel (hydroxypropylcellulose) (HPC) 100 % of control

COc1ccc(C(O)C2c3cc4c(cc3CCN2C)OCO4)c(CO)c1OC (stereo not drawn)
inactive: dose: 25.0 mg/kg/injection, schedule: Q01DX001 (ip), vehicle: saline + alcohol 88 % of control | dose: 50.0 mg/kg/injection, schedule: Q01DX001 (ip), vehicle: saline + alcohol 95 % of control | dose: 100.0 mg/kg/injection, schedule: Q01DX001 (ip), vehicle: saline + alcohol 104 % of control

Nc1nc2ncc(CNc3ccc(C(=O)NC(CCC(=O)O)C(=O)O)cc3)cc2c(=O)[nH]1 (stereo not drawn)
inactive: [1] 100 % of control | [2] 117 % of control | [3] 102 % of control

COc1cc(OC)c(C2CC(C)(N3CCCC3)Oc3cc4c(cc32)OCO4)c(OC)c1 (stereo not drawn)
inactive: [18] 94 % of control | [19] 91 % of control | [20] 87 % of control

CCOc1ccc(OCC)c(NC(=O)c2ccccc2)c1
inactive: dose: 100.0 mg/kg/injection, schedule: Q04DX003 (ip), vehicle: saline with Tween-80 100 % of control | dose: 200.0 mg/kg/injection, schedule: Q04DX003 (ip), vehicle: saline with Tween-80 95 % of control | dose: 400.0 mg/kg/injection, schedule: Q04DX003 (ip), vehicle: saline with Tween-80 95 % of control

COc1cc2cccnc2c2[nH]c(=O)c3c(c12)CCC3
inactive: [4] 101 % of control | [5] 99 % of control

CCCCc1c[nH]n(C(N)=NCCSCc2nc[nH]c2C)c1=O
inactive: dose: 60.0 mg/kg/injection, schedule: Q01DX005 (ip), vehicle: Klucel (hydroxypropylcellulose) (HPC) 94 % of control | dose: 120.0 mg/kg/injection, schedule: Q01DX005 (ip), vehicle: Klucel (hydroxypropylcellulose) (HPC) 98 % of control | dose: 240.0 mg/kg/injection, schedule: Q01DX005 (ip), vehicle: Klucel (hydroxypropylcellulose) (HPC) 93 % of control

NC(=S)N=Nc1c(O)n(C2OC(CO)C(O)C(O)C2O)c2ccccc12 (stereo not drawn)
inactive: dose: 32.0 mg/kg/injection, schedule: Q01DX002 (ip), vehicle: saline with Tween-80 109 % of control and 112 % of control | dose: 64.0 mg/kg/injection, schedule: Q01DX002 (ip), vehicle: saline with Tween-80 114 % of control and 116 % of control | dose: 128.0 mg/kg/injection, schedule: Q01DX002 (ip), vehicle: saline with Tween-80 98 % of control and 90 % of control

NS(=O)(=O)c1ccc(N=Cc2cnc3ccccc3c2)cc1
inactive: dose: 2.5 mg/kg/injection, schedule: Q01DX009 (ip), vehicle: saline 100 % of control | dose: 5.0 mg/kg/injection, schedule: Q01DX009 (ip), vehicle: saline 97 % of control | dose: 10.0 mg/kg/injection, schedule: Q01DX009 (ip), vehicle: saline 100 % of control and 91 % of control | dose: 20.0 mg/kg/injection, schedule: Q01DX009 (ip), vehicle: saline 93 % of control

NCCN.NCCN.[Cl-].[O]=[Os+2]=[O]
inactive: [18] 118 % of control | [19] 114 % of control

Nc1c(Cl)cc(Cl)c(-c2c(Cl)cc(Cl)c([N+](=O)[O-])c2Cl)c1Cl
inactive: [13] 103 % of control | [14] 93 % of control | [15] 100 % of control

CCCCn1c2c(c3ccccc3c1=O)C(=O)c1ccccc1-2
inactive: [1] 92 % of control | [2] 91 % of control | [3] 88 % of control

O=C1C(c2cnc3c(n2)CCC=C3)=C(O)c2ccccc21
inactive: [18] 99 % of control | [19] 100 % of control | [20] 100 % of control
